Data: patent publication US4489062A, “Pharmaceutical compounds, preparation, use and intermediates therefor and their preparation” (priority 1982, dated 1984)
Where a SMILES comes first, the peptide text is derived from it. [ ]: non-standard residue; d: D form. Phe(4-NO2) = N[C@@H](Cc1ccc([N+](=O)[O-])cc1)C(=O)O

How the values were obtained:
Type in all cases: in vivo
female CD1 mice [1] = experiment: Irritant-induced writhing test, phenylbenzoquinone (PBQ); settings: s.c. 15 mins. prior to PBQ 2.5 mg/kg, Ex. compounds calculated as the peptide per se; for ED50: Mus musculus, 0.25 h
From the text: (§1) (1) Both the hotplate test (Woolfe and MacDonald, J. Pharmacol. Exp. Ther. 80:300, 1944) and the irritant-induced writhing (stretch) test (Vander Wende and Margolin, Fed. Proc. 15:494, 1956) are standard in the art for the investigation of analgesic activity. Whereas it is believed that the pain in the latter can be ameliorated either centrally or peripherally, it is thought that that induced in the hotplate test is affected only at the central level.
(§2) (i) Acetic Acid. Groups of five female CD1 mice (Charles River) received either a test compound or saline vehicle (0.85%) control by subcutaneous injection 15 mins. (unless otherwise indicated) prior to an intraperitoneal injection of 0.6% acetic acid at a dose volume of 25 ml/kg. After a further 20 mins. the writhing or stretching movements induced by the irritant were counted over a 21/2 min. period, a writhe/stretch being identified as an extension of a hindlimb accompanied by constriction of the abdomen.
(ii) Phenylbenzoquinone (PBQ). This test was carried out in a parallel manner to that employing acetic acid, […], except that the period over which the writhing/stretching movements were counted began 10 mins. after administration of the PBQ irritant, the latter being given at a dosage of 2.5 mg/kg and in a dose volume of 10 ml/kg.
(§3) The ED50 figures for the test compounds were calculated, using linear regression analysis, as the dose in the presence of which only half the number of writhes/stretches was induced compared with the controls.

Male mice (CFLP strain) = experiment: Hotplate test; settings: 55° C. hotplate, 15 mins. after treatment, reaction time twice the pretreatment figure, Ex. compounds calculated as the peptide per se; for ED50: Mus musculus, sc
From the text: as §1
Male mice (CFLP strain, Hacking and Churchill) were individually placed in a copper-bottomed perspex box suspended in a water bath at 55° C. and observed for signs of discomfort such as shaking or licking the paws, the reaction time (up to a maximum of 30 secs.) being recorded. Groups of five animals then received either a test compound or saline vehicle (0.85%) control by subcutaneous injection, the test being repeated at 15 mins. after treatment. The ED50 figures for the test compounds were calculated from the number of animals having a posttreatment reaction time which was twice the pretreatment figure.

male TFW mice = experiment: Antagonism by quaternary opioid (N-methylnalorphine) in acetic acid writhing test; settings: for ED50: Mus musculus, 20 min, read-out: ED50 (mg/kg, s.c.) Saline control (b); for ED50 / ED50 (mg/kg, s.c.) Saline control (b): acetic acid writhing, saline i.p. 20 mins. before test compound s.c., Ex. compounds calculated as the peptide per se; for Dose ratio (a):(b): ratio of equiactive doses in presence and absence of N-methylnalorphine, calculated from the linear regression of the dose/response curves
From the text: (3) The analgesia induced by the peptides in the writhing test upon peripheral (parenteral) administration is antagonised by parenteral administration of the quaternary opioid antagonist N-allyl-normorphine methiodide (N-methylnalorphine; Koczka et al, Acta Chim. Acad. Sci. Hung. 51:393, 1967), i.e. a higher dose of the peptide is required in the presence than in the absence of the opioid for the same effect. As penetration of the blood-brain barrier by the quaternary compound is minimal (c.f. Tavani et al, European J. Pharmacol. 59:151-154, 1979) both the peptide-induced analgesia and the antagonism thereof are effected at the peripheral level.
Groups of six male TFW mice (Tuck) received by intraperitoneal injection either N-methylnalorphine (16 mg/kg) or saline vehicle (0.85%) control at a volume of 10 ml/kg followed after 20 mins. by a solution of the test compound in saline (10 ml/kg, subcutaneous) and after a further 30 mins. by 0.6% acetic acid (25 ml/kg, intraperitoneal). The total number of writhes/stretches per group was then determined over the 5 min. period commencing 15 mins. after administration of the acetic acid. Using linear regression analysis the ED50 figures for the test compounds were calculated (defined as in (B) supra) together with the dose ratios therefor, i.e. the ratios of the dose of compound required for equiactive antinociceptive effect in respectively the presence and the absence of the quaternary compound.

female CD1 mice [2] = experiment: Irritant-induced writhing test, acetic acid; settings: s.c. 15 mins. prior to i.p. 0.6% acetic acid, Ex. compounds calculated as the peptide per se; for ED50: Mus musculus, 0.25 h
From the text: as §1, §2, §3

Female Cobs Wistar rats = experiment: Antidiarrhoeal activity (castor oil-induced diarrhoea); settings: calculated as the peptide per se; for ED50 (mg/kg, s.c.) antidiarrhoeal, 1.5 hrs.: 1.5 hrs. post castor oil; for ED50 (mg/kg, s.c.) antidiarrhoeal, 2.0 hrs.: 2.0 hrs. post castor oil; for ED50 (mg/kg, s.c.) antidiarrhoeal, 3.0 hrs.: 3.0 hrs. post castor oil
Procedure: Female Cobs Wistar rats (Charles River) were starved for 24 hours prior to subcutaneous administration of the test compound as a solution in 0.85% (w/w) saline and at a volume of 10 ml/kg. Fifteen minutes after the compound each rat received 1 ml. castor oil given orally and the animals were then observed for the appearance of diarrhoea.

rats = experiment: Toxicology, 14-day subcutaneous administration, rats; settings: rat; s.c. daily for 14 days at 7.5, 15 or 30 mg/kg per day (as peptide per se)
Procedure: (§4) The diacetate product of Example 1 was administered subcutaneously to rats and marmosets as a solution in 0.85% (w/w) saline at a volume of 0.1 ml/100 g bodyweight. For each species the compound was given daily for 14 days at a dose (calculated as the peptide per se) selected from 7.5, 15 and 30 mg/kg bodyweight per day.

guinea pigs = experiment: Antitussive activity (citric acid aerosol-induced cough); settings: s.c. 30 minutes before 30% citric acid aerosol; calculated as the peptide per se; 95% confidence limits 0.04-2.6 mg/kg
Procedure: In this test procedure, a modification of that described by Boura et al., Br. J. Pharmac., 39/1 (1970) 225, guinea pigs were subjected to an aerosol containing 30% citric acid, 30 minutes after subcutaneous administration of test compound as a solution in 0.85% (w/w) saline, and the number of coughs during a 121/2-minute exposure counted.

marmosets = experiment: Toxicology, 14-day subcutaneous administration, marmosets; settings: s.c. daily for 14 days at 7.5, 15 or 30 mg/kg per day (as peptide per se)
Procedure: as §4

Row | Molecule | ED50 (female CD1 mice [1]) [mg/kg] | ED50 (Male mice (CFLP strain)) [mg/kg] | ED50 (male TFW mice) [mg/kg] | Dose ratio (a):(b) (male TFW mice) | ED50 (female CD1 mice [2]) [mg/kg] | ED50 (mg/kg, s.c.) PBQ writhing (female CD1 mice [1]) [mg/kg] | ED50 (mg/kg, s.c.) antidiarrhoeal, 1.5 hrs. (Female Cobs Wistar rats) [mg/kg] | ED50 (mg/kg, s.c.) antidiarrhoeal, 2.0 hrs. (Female Cobs Wistar rats) [mg/kg] | ED50 (mg/kg, s.c.) antidiarrhoeal, 3.0 hrs. (Female Cobs Wistar rats) [mg/kg] | ED50 (mg/kg, s.c.), hotplate test (Male mice (CFLP strain)) [mg/kg] | ED50 (mg/kg, s.c.) Saline control (b) (male TFW mice) [mg/kg] | toxicity attributable to the compound (rats) | ED50 (mg/kg, s.c.) Acetic acid writhing (female CD1 mice [2]) [mg/kg] | ED50 (dose required to reduce the number of coughs by 50%) (guinea pigs) [mg/kg] | clinical signs observed (marmosets)
1 | CCC(=O)O[C@](Cc1ccccc1)(c1ccccc1)[C@H](C)CN(C)C [Dextropropoxyphene, reference compound] | 2.6 | 25.9 | 6.8 | 1.0 | 4.2 |  |  |  |  |  |  |  |  |  | 
2 | N=C(N)NCCC[C@@H](NC(=O)[C@@H](N)Cc1ccc(O)cc1)C(=O)NCC(=O)N[C@@H](Cc1ccc([N+](=O)[O-])cc1)C(=O)N1CCC[C@H]1C(N)=O [Ex. 1, H--Tyr--D--Arg--Gly--Phe(4--NO2)--Pro.NH2 diacetate] (H-Y[dR]G[Phe(4-NO2)]P-NH2) |  |  |  | 4.1 |  | 4.0 | 0.79 | 3.19 | 54.9 | 94.8 | 4.6 | No toxicity attributable to the compound was seen | 4.3 | 0.26 | transient post-dose vomiting and salivation at 30 mg/kg and to a lesser extent at the lower doses
3 | COc1ccc2c(c1)c(CC(=O)O)c(C)n2C(=O)c1ccc(Cl)cc1 [Indomethacin, reference compound] | 0.9 | > 100 |  |  |  |  |  |  |  |  |  |  |  |  | 
4 | CN1CC[C@]23c4c5ccc(O)c4O[C@H]2[C@@H](O)C=C[C@H]3[C@H]1C5 [Morphine, reference compound] | 0.38 | 1.8 | 0.4 |  |  |  |  |  |  |  |  |  |  |  | 
5 | CC(C)=CCN1CCC2(C)c3cc(O)ccc3CC1C2C (stereo not drawn) [Pentazocine, reference compound] |  | > 100 |  |  | 2.3 |  |  |  |  |  |  |  |  |  | 
6 | H--Tyr--D--Met(Me)--Gly--Phe(4NO2)--Pro.NH2 chloride, hydrochloride [Ex. 2] |  |  |  | 3.3 |  | 4.6 | 0.16 | 0.89 | 8.61 | 129.5 | 1.5 |  | 1.2 |  | 
7 | N--AmidinoTyr--D--Met(Me)--Gly--Phe(4NO2)--Pro.NH2 chloride, hydrochloride [Ex. 4] |  |  |  | 4.2 |  | 1.0 | 0.07 | 0.14 | 0.84 | 43.8 | 0.7 |  | 0.6 |  | 
